Experimental data: ChEMBL document CHEMBL1153255, “Studies on irreversible inhibition of serine proteases by -sulfonyloxyketone derivatives” (Bioorg Med Chem Lett, 1996)

Experiments:
[1] = molecular target: Chymotrypsinogen A (Bos taurus) (UniProt P00766); assay: Compound was evaluated for inhibitory activity against alpha- chymotrypsin
[2] = molecular target: T1, Chymotrypsin-like elastase family member 2A (Sus scrofa) (UniProt P08419); assay: Compound was evaluated for inhibitory activity against porcine pancreatic elastase
T1 sequence (whole entry): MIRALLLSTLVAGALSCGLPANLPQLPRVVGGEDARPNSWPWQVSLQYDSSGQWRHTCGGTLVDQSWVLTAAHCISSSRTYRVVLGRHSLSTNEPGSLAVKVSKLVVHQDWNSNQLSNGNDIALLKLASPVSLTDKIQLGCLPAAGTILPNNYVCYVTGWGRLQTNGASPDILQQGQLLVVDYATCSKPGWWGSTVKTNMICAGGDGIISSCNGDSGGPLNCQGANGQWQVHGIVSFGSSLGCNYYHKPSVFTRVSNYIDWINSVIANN

[3] = molecular target: Chymotrypsinogen A (Bos taurus) (UniProt P00766); assay: Compound was evaluated for its inhibitory activity against alpha- chymotrypsin
[4] = molecular target: T1, Chymotrypsin-like elastase family member 2A (Sus scrofa); assay: Compound was evaluated for inhibitory activity against porcine pancreatic elastase; No inactivation

SMILES | I [1] [mM] | K obs / 1 [1] [M⁻¹ s⁻¹] | I [2] [mM] | K obs / 1 [2] [M⁻¹ s⁻¹] | K obs / 1 [3] [M⁻¹ s⁻¹] | K obs / 1 [4]
CC(=O)C(Cc1ccccc1)OS(C)(=O)=O (configuration not stated) | 2.31 | 0.33 | – | – | – | –
CC(=O)C(C)OS(=O)(=O)c1ccccc1 (configuration not stated) | 3.28 | 0.01 | 2.01 | 0.19 | – | –
Cc1ccc(S(=O)(=O)N[C@@H](Cc2ccccc2)C(=O)CCl)cc1 | 0.057 | – | – | – | 7.7 | –
CC(=O)C(Cc1ccccc1)OS(=O)(=O)c1ccc(C)cc1 (configuration not stated) | 0.096 | 10.5 | 0.103 | – | – | No inhibition
